# Experimental data taken from article PMC9687610, “Adenosine-Mimicking Derivatives of 3-Aminopyrazine-2-Carboxamide: Towards Inhibitors of Prolyl-tRNA Synthetase with Antimycobacterial Activity” (Biomolecules, 2022).
# Read-outs that look alike come from different tables or passages of the source.
# Tests used:
# [1] = tested on: Aspergillus fumigatus ATCC 204305; test: Antifungal microdilution broth (EUCAST), AF; format: cell-based; conditions: Aspergillus fumigatus, ATCC204305; read after 24 h; read-out: AF MIC
# [2] = tested on: Candida krusei CCM 8271 (ATCC 6258); test: Antifungal microdilution broth (EUCAST), CK; format: cell-based; conditions: Pichia kudriavzevii; read after 24 h; read-out: CK MIC
# [3] = tested on: Staphylococcus aureus subsp. aureus methicillin-resistant (MRSA) CCM 4750 (ATCC 43300); test: Antibacterial microdilution broth (EUCAST), MRSA; format: cell-based; conditions: Staphylococcus aureus; read after 24 h; read-out: MRSA MIC
# [4] = tested on: Candida tropicalis CCM 8264 (ATCC 750); test: Antifungal microdilution broth (EUCAST), CT; format: cell-based; conditions: Candida tropicalis; read after 24 h; read-out: CT MIC
# [5] = tested on: Lichtheimia corymbifera CCM 8077; test: Antifungal microdilution broth (EUCAST), LC; format: cell-based; conditions: Lichtheimia corymbifera, CCM8077; read after 24 h; read-out: LC MIC
# [6] = tested on: Aspergillus flavus CCM 8363; test: Antifungal microdilution broth (EUCAST), AFla; format: cell-based; conditions: Aspergillus flavus, CCM8363; read after 24 h; read-out: AFla MIC
# [7] = tested on: Enterococcus faecalis CCM 4224 (ATCC 29212); test: Antibacterial microdilution broth (EUCAST), EF; format: cell-based; conditions: Enterococcus faecalis; read after 24 h; read-out: EF MIC
# [8] = tested on: Staphylococcus aureus subsp. aureus CCM 4223 (ATCC 29213); test: Antibacterial microdilution broth (EUCAST), SA; format: cell-based; conditions: Staphylococcus aureus; read after 24 h; read-out: SA MIC
# [9] = tested on: Acinetobacter baumannii DSM 30007 (ATCC 19606); test: Antibacterial microdilution broth (EUCAST), ACI; format: cell-based; conditions: Acinetobacter baumannii; read after 24 h; read-out: ACI MIC
# [10] = tested on: HepG2 human hepatocellular carcinoma cells; test: In vitro HepG2 cytotoxicity (CellTiter 96); conditions: for IC50: Homo sapiens, HepG2, 24 h, read-out: HepG2 IC50, 24 h incubation, * limit = highest evaluated concentration (precipitation in medium), ** over the 1000 µM limit
# [11] = tested on: Klebsiella pneumoniae CCM 4415 (ATCC 10031); test: Antibacterial microdilution broth (EUCAST), KP; conditions: read after 24 h
# [12] = tested on: Mycobacterium smegmatis DSM 43465 (ATCC 607); test: Microplate Alamar Blue Assay (MABA), M. smegmatis; format: cell-based; conditions: Mycolicibacterium smegmatis, read-out: M. smegmatis MIC
# [13] = tested on: Trichophyton interdigitale CCM 8377 (ATCC 9533); test: Antifungal microdilution broth (EUCAST), TI; format: cell-based; conditions: Trichophyton interdigitale, 72 h, read-out: TI MIC
# [14] = tested on: M. aurum DSM 43999 (ATCC 23366); test: Microplate Alamar Blue Assay (MABA), M. aurum; format: cell-based; conditions: Mycolicibacterium aurum, read-out: M. aurum MIC
# [15] = tested on: Candida albicans CCM 8320 (ATCC 24433); test: Antifungal microdilution broth (EUCAST), CA; format: cell-based; conditions: Candida albicans; read after 24 h; read-out: CA MIC
# [16] = tested on: Candida parapsilosis CCM 8260 (ATCC 22019); test: Antifungal microdilution broth (EUCAST), CP; format: cell-based; conditions: Lodderomyces parapsilosis; read after 24 h; read-out: CP MIC
# [17] = tested on: Mycobacterium tuberculosis H37Ra ITM-M006710 (ATCC 9431); test: Microplate Alamar Blue Assay (MABA), Mtb H37Ra; format: cell-based; conditions: for MIC: Mycobacterium tuberculosis, 120 h, pH 6.6, MABA, Middlebrook 7H9 broth pH 6.6, resazurin after 120 h, read-out: Mtb H37Ra MIC
# [18] = tested on: Pseudomonas aeruginosa CCM 3955 (ATCC 27853); test: Antibacterial microdilution broth (EUCAST), PA; format: cell-based; conditions: Pseudomonas aeruginosa; read after 24 h; read-out: PA MIC
# [19] = tested on: Escherichia coli CCM 3954 (ATCC 25922); test: Antibacterial microdilution broth (EUCAST), EC; format: cell-based; conditions: Escherichia coli; read after 24 h; read-out: EC MIC
# [20] = tested on: Staphylococcus epidermidis CCM 4418 (ATCC 12228); test: Antibacterial microdilution broth (EUCAST), SE; format: cell-based; conditions: read after 24 h, read-out: SE MIC
SMILES,MIC [1],MIC [2],MIC [3],MIC [4],MIC [5],MIC [6],MIC [7],MIC [8],melting point,MIC [9],IC50 [10],KP MIC [11],"MIC ([12]; MABA, resazurin after 48 h)",MIC [13],MIC [15],MIC [16],MIC [17],MIC [18],MIC [19],MIC [20],further results
COc1ccccc1C(=O)Nc1nccnc1C(N)=O [Compound 7],> 500 µM,> 500 µM,> 500 µM,> 500 µM,> 500 µM,> 500 µM,> 500 µM,> 500 µM,205.4 to 206.7 °C,> 500 µM,> 500 µM,> 500 µM,62.5 µg/mL,> 500 µM,> 500 µM,> 500 µM,125 µg/mL,> 500 µM,> 500 µM,> 500 µM,"MIC ([14]; MABA, resazurin after 72 h): ≥ 500 µg/mL"
NC(=O)c1nccnc1NC(=O)c1ccccc1F [Compound 10],> 500 µM,> 500 µM,> 500 µM,> 500 µM,> 500 µM,> 500 µM,> 500 µM,> 500 µM,211 to 213 °C,> 500 µM,556 µM,> 500 µM,≥ 500 µg/mL,> 500 µM,> 500 µM,> 500 µM,250 µg/mL,> 500 µM,> 500 µM,> 500 µM,"MIC ([14]; MABA, resazurin after 72 h): ≥ 500 µg/mL"
O=c1[nH]c(-c2ccccc2)nc2nccnc12 [Compound 39],> 125 µM,> 125 µM,> 125 µM,> 125 µM,> 125 µM,> 125 µM,> 125 µM,> 125 µM,283.5 to 284.5 °C,> 125 µM,> 1000 µM,> 125 µM,≥ 500 µg/mL,> 125 µM,> 125 µM,> 125 µM,62.5 µg/mL,> 125 µM,> 125 µM,> 125 µM,"MIC ([14]; MABA, resazurin after 72 h): 125 µg/mL"
NC(=O)c1nccnc1NC(=O)c1cc(Cl)cc(Cl)c1 [Compound 19],> 500 µM,> 500 µM,> 500 µM,> 500 µM,> 500 µM,> 500 µM,> 500 µM,> 500 µM,> 300 °C,> 500 µM,> 250 µM,> 500 µM,,> 500 µM,> 500 µM,> 500 µM,≥ 62.5 µg/mL,> 500 µM,> 500 µM,> 500 µM,MIC ([12]; 48 h): ≥ 62.5 µg/mL; MIC ([14]; 72 h): ≥ 62.5 µg/mL
Cc1ccccc1C(=O)Nc1nccnc1C(N)=O [Compound 2],> 125 µM,> 125 µM,> 500 µM,> 125 µM,> 125 µM,> 125 µM,> 500 µM,> 500 µM,234.4 to 235.9 °C,> 500 µM,422 µM,> 500 µM,≥ 500 µg/mL,> 125 µM,> 125 µM,> 125 µM,≥ 500 µg/mL,> 500 µM,> 500 µM,> 500 µM,"MIC ([14]; MABA, resazurin after 72 h): ≥ 500 µg/mL"
CCCCCC(=O)Nc1nccnc1C(N)=O [Compound 30],> 500 µM,> 500 µM,> 500 µM,> 500 µM,> 500 µM,> 500 µM,> 500 µM,> 500 µM,138.4 to 139 °C,> 500 µM,560 µM,> 500 µM,≥ 500 µg/mL,> 500 µM,> 500 µM,> 500 µM,≥ 500 µg/mL,> 500 µM,> 500 µM,> 500 µM,"MIC ([14]; MABA, resazurin after 72 h): ≥ 250 µg/mL"
CNC(=O)c1nccnc1NC(=O)c1ccc(Br)cc1 [Compound 35],> 125 µM,> 125 µM,> 125 µM,> 125 µM,> 125 µM,> 125 µM,> 125 µM,> 125 µM,202 to 202.5 °C,> 125 µM,> 50 µM,> 125 µM,≥ 500 µg/mL,> 125 µM,> 125 µM,> 125 µM,≥ 500 µg/mL,> 125 µM,> 125 µM,> 125 µM,"MIC ([14]; MABA, resazurin after 72 h): ≥ 500 µg/mL"
NC(=O)c1nccnc1NC(=O)c1cccc(Br)c1 [Compound 17],> 125 µM,> 125 µM,> 125 µM,> 125 µM,> 125 µM,> 125 µM,> 125 µM,> 125 µM,255 to 256 °C,> 125 µM,> 5 µM,> 125 µM,,> 125 µM,> 125 µM,> 125 µM,≥ 125 µg/mL,> 125 µM,> 125 µM,> 125 µM,solubility in the testing medium (in words) ([10]; HepG2 cell culture medium): low solubility; MIC ([12]; 48 h): ≥ 125 µg/mL; MIC ([14]; 72 h): ≥ 125 µg/mL
COc1cccc(C(=O)Nc2nccnc2C(N)=O)c1 [Compound 8],> 500 µM,> 500 µM,> 500 µM,> 500 µM,> 500 µM,> 500 µM,> 500 µM,> 500 µM,221 to 223 °C,> 500 µM,> 100 µM,> 500 µM,≥ 250 µg/mL,> 500 µM,> 500 µM,> 500 µM,≥ 250 µg/mL,> 500 µM,> 500 µM,> 500 µM,"MIC ([14]; MABA, resazurin after 72 h): ≥ 250 µg/mL"
CN(C)C(=O)c1nccnc1NC(=O)c1ccc(Cl)cc1 [Compound 37],> 500 µM,> 500 µM,> 500 µM,> 500 µM,> 500 µM,> 500 µM,> 500 µM,> 500 µM,184.1 to 185.3 °C,> 500 µM,> 1000 µM,> 500 µM,≥ 500 µg/mL,> 500 µM,> 500 µM,> 500 µM,≥ 500 µg/mL,> 500 µM,> 500 µM,> 500 µM,"MIC ([14]; MABA, resazurin after 72 h): ≥ 500 µg/mL; antimycobacterial activity (in words) ([17]; activity refers to Mtb H37Ra from the primary screening if not otherwise stated): inactive"
NC(=O)c1nccnc1NC(=O)c1ccccc1C(F)(F)F [Compound 20],> 500 µM,> 500 µM,> 500 µM,> 500 µM,> 500 µM,> 500 µM,> 500 µM,> 500 µM,201.5 to 202.4 °C,> 500 µM,> 250 µM,> 500 µM,≥ 500 µg/mL,> 500 µM,> 500 µM,> 500 µM,500 µg/mL,> 500 µM,> 500 µM,> 500 µM,"MIC ([14]; MABA, resazurin after 72 h): ≥ 500 µg/mL"
CCCC(=O)Nc1nccnc1C(N)=O [Compound 29],> 500 µM,> 500 µM,> 500 µM,> 500 µM,> 500 µM,> 500 µM,> 500 µM,> 500 µM,158.7 to 159.5 °C,> 500 µM,> 1000 µM,> 500 µM,≥ 500 µg/mL,> 500 µM,> 500 µM,> 500 µM,≥ 500 µg/mL,> 500 µM,> 500 µM,> 500 µM,"MIC ([14]; MABA, resazurin after 72 h): ≥ 500 µg/mL"
